The results in this text go back to patent US20260062422A1 (Halda Therapeutics OpCo, Inc., priority 2022, published 2026).

One test has as its system VCaP cells. The test can be described thus: Cellular growth inhibition assay for VCaP cells, CellTiter-Glo. To be noted: Homo sapiens, VCaP, 72 h, 72 hours treatment, CellTiter-Glo 2.0. Format: cell-based, human. The procedure, abridged:
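GI50 values come from four-parameter curve fits of luminescence data normalized to a zero baseline. Compound, in medium with 0.5% DMSO, was added one day after plating and left for 72 h before CellTiter-Glo 2.0 addition.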
On the technique in general: In ATP-based viability assays light output follows the ATP content of the culture.

Test [1] relates to T-Rex 293 cell line SC3 cells having increased expression of androgen receptor protein due to exposure to doxycycline. The test can be described thus: Cellular growth inhibition, T-Rex 293 SC3 cells with doxycycline (androgen receptor induced), CellTiter-Glo. As to conditions: 72 h, T-Rex 293 SC3 cells with 10 ng/mL doxycycline (increased androgen receptor expression). Type of test: cell-based. The procedure, abridged: (§1)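 GI50 came from a four-parameter fit of CellTiter-Glo 2.0 luminescence after 72 h compound exposure (0.5% DMSO, 37 °C), dosing 24 h post-seeding. SC3 clone cells (2500/well), transfected with wild-type androgen receptor, grew in charcoal-stripped serum medium lacking phenol red, induced with 10 ng/mL doxycycline or left uninduced.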

In test [2] the test system is T-Rex 293 cell line SC3 cells lacking increased expression of androgen receptor protein. The experiment in a line: Cellular growth inhibition, T-Rex 293 SC3 cells without doxycycline, CellTiter-Glo. Type of test: cell-based. As to conditions: 72 h, T-Rex 293 SC3 cells not exposed to doxycycline, CellTiter-Glo 2.0. An outline of the steps:
as §1

The test system of another test is T47D cells. The test can be described thus: Cellular growth inhibition assay for T47D cells, CellTiter-Glo. Format: cell-based, human. To be noted: Homo sapiens, T47D, 72 h, 72 hours treatment, CellTiter-Glo 2.0 cell viability. The procedure, abridged: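 Luminescence from CellTiter-Glo 2.0 after 72 h of compound exposure gives the viability signal. Cells grew in insulin-supplemented (0.2 units/mL) DMEM with 10% FBS and were treated one day after seeding at 0.5% DMSO. GI50 values come from four-parameter nonlinear regression.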

Some results are limits rather than exact numbers.

For `Cc1sc2c(c1C)C(c1ccc(Cl)cc1)=N[C@H](CC(=O)NCCCCOC1CCN(c3ncc(C(=O)N[C@H]4C(C)(C)[C@H](Oc5ccc(C#N)c(Cl)c5)C4(C)C)cn3)CC1)c1nnc(C)n1-2` [Compound I-21], the GI50 in the test with VCaP cells is < 500 nM; in test [1], < 500 nM; in test [2] it was > 3000 nM; with T47D cells, 500 to 1500 nM.
On to `Cc1sc2c(c1C)C(c1ccc(Cl)cc1)=N[C@@H](CC(=O)NCCN1CCN(CC3CCN(c4ncc(C(=O)N[C@H]5C(C)(C)[C@H](Oc6ccc(C#N)c(Cl)c6)C5(C)C)cn4)CC3)CC1)c1nnc(C)n1-2` [Compound I-35, N-((1r,3r)-3-(3-chloro-4-cyanophenoxy)-2,2,4,4-tetramethylcyclobutyl)-2-(4-((4-(2-(2-((S)-4-(4-chlorophenyl)-2,3,9-trimethyl-6H-thieno[3,2-f][1,2,4]triazolo[4,3-a][1,4]diazepin-6-yl)acetamido)ethyl)piperazin-1-yl)methyl)piperidin-1-yl)pyrimidine-5-carboxamide], for which the GI50 is 500 to 1500 nM in the test on VCaP cells, 500 to 1500 nM in test [1], 500 to 1500 nM in test [2] and < 500 nM with T47D cells.
In the case of `Cc1sc2c(c1C)C(c1ccc(OC3CC4(CCN(c5ncc(C(=O)N[C@H]6C(C)(C)[C@H](Oc7ccc(C#N)c(Cl)c7)C6(C)C)cn5)CC4)C3)cc1)=N[C@H](Cc1ncco1)c1nnc(C)n1-2` [Compound I-50, N-[3-(3-chloro-4-cyano-phenoxy)-2,2,4,4-tetramethyl-cyclobutyl]-2-[2-[4-[(9R)-4,5,13-trimethyl-9-(oxazol-2-ylmethyl)-3-thia-1,8,11,12-tetrazatricyclo[8.3.0.02,6]trideca-2(6),4,7,10,12-pentaen-7-yl]phenoxy]-7-azaspiro[3.5]nonan-7-yl]pyrimidine-5-carboxamide], the GI50 with VCaP cells was > 3000 nM; in test [1] it was < 500 nM; in test [2] it was > 3000 nM; with T47D cells it was > 3000 nM.
Consider `Cc1sc2c(c1C)C(c1ccc(C#CCN3CCN(c4ncc(C(=O)N[C@H]5C(C)(C)[C@H](Oc6ccc(C#N)c(Cl)c6)C5(C)C)cn4)CC3)cc1)=N[C@@H](Cc1ncco1)c1nnc(C)n1-2` [Compound I-56], for which the GI50 (in the test on VCaP cells; in test [1]; in test [2]; in the test on T47D cells) was < 500 nM in each case.
As for `Cc1sc2c(c1C)C(c1ccc(C#CCC3CCN(c4ncc(C(=O)N[C@H]5C(C)(C)[C@H](Oc6ccc(C#N)c(Cl)c6)C5(C)C)cn4)CC3)cc1)=N[C@@H](Cc1ncco1)c1nnc(C)n1-2` [Compound I-57], the GI50 (in the test on VCaP cells; in test [1]; in test [2]; in the test with T47D cells) was < 500 nM in each case.
For `Cc1sc2c(c1C)C(c1ccc(C#CCC3CCN(c4ncc(C(=O)N[C@H]5C(C)(C)[C@H](Oc6ccc(C#N)c(Cl)c6)C5(C)C)cn4)CC3)cc1)=N[C@H](Cc1ncco1)c1nnc(C)n1-2` [Compound I-58], the GI50 in the test on VCaP cells was < 500 nM; in test [1] it was < 500 nM; in test [2], > 3000 nM; in the test on T47D cells, > 3000 nM.
As to `Cc1sc2c(c1C)C(c1ccc(C#CC3CC4(C3)CN(c3ncc(C(=O)N[C@H]5C(C)(C)[C@H](Oc6ccc(C#N)c(Cl)c6)C5(C)C)cn3)C4)cc1)=N[C@@H](Cc1ncco1)c1nnc(C)n1-2` [Compound I-59], the GI50 (in the test with VCaP cells; in test [1]; in test [2]; with T47D cells) was < 500 nM throughout.
`Cc1sc2c(c1C)C(c1ccc(OCCOC3CCN(c4ncc(C(=O)N[C@H]5C(C)(C)[C@H](Oc6ccc(C#N)c(Cl)c6)C5(C)C)cn4)CC3)cc1)=N[C@@H](CC(=O)NC(C)C)c1nnc(C)n1-2` [Compound I-65]: the GI50 with VCaP cells is < 500 nM; in test [1] it was < 500 nM; in test [2], < 500 nM; in the test on T47D cells, 500 to 1500 nM.
For `Cc1sc2c(c1C)C(c1ccc(OCCOC3CCN(c4ncc(C(=O)N[C@H]5C(C)(C)[C@H](Oc6ccc(C#N)c(Cl)c6)C5(C)C)cn4)CC3)cc1)=N[C@@H](CC(=O)NC1CC1)c1nnc(C)n1-2` [Compound I-67], the GI50 with VCaP cells is < 500 nM; in test [1], < 500 nM; in test [2], < 500 nM; in the test on T47D cells, 500 to 1500 nM.
`CCNC(=O)C[C@@H]1N=C(c2ccc(OCCC3CCN(c4ncc(C(=O)N[C@H]5C(C)(C)[C@H](Oc6ccc(C#N)c(Cl)c6)C5(C)C)cn4)CC3)cc2)c2c(sc(C)c2C)-n2c(C)nnc21` [Compound I-69]: the GI50 in the test with VCaP cells was < 500 nM; in test [1], < 500 nM; in test [2] it was < 500 nM; with T47D cells, 500 to 1500 nM.
As for `CCNC(=O)C[C@@H]1N=C(c2ccc(OCCN3CCN(c4ncc(C(=O)N[C@H]5C(C)(C)[C@H](Oc6ccc(C#N)c(Cl)c6)C5(C)C)cn4)CC3)cc2)c2c(sc(C)c2C)-n2c(C)nnc21` [Compound I-70], the GI50 is < 500 nM in the test on VCaP cells, < 500 nM in test [1], 500 to 1500 nM in test [2] and 500 to 1500 nM with T47D cells.
`CCNC(=O)C[C@@H]1N=C(c2ccc(OC3CC(OC4CCN(c5ncc(C(=O)N[C@H]6C(C)(C)[C@H](Oc7ccc(C#N)c(Cl)c7)C6(C)C)cn5)CC4)C3)cc2)c2c(sc(C)c2C)-n2c(C)nnc21` (stereo partly drawn) [Compound I-72]: the GI50 in the test with VCaP cells was < 500 nM; in test [1], < 500 nM; in test [2] it was 500 to 1500 nM; in the test on T47D cells, < 500 nM.
As for `CCNC(=O)C[C@@H]1N=C(c2ccc(OC3CN(CC4CCN(c5ncc(C(=O)N[C@H]6C(C)(C)[C@H](Oc7ccc(C#N)c(Cl)c7)C6(C)C)cn5)CC4)C3)cc2)c2c(sc(C)c2C)-n2c(C)nnc21` [Compound I-79], the GI50 with VCaP cells is < 500 nM; in test [1], < 500 nM; in test [2], 500 to 1500 nM; in the test with T47D cells it was < 500 nM.
In the case of `CCNC(=O)C[C@@H]1N=C(c2ccc(OCCN(C)c3ncc(C(=O)N[C@H]4C(C)(C)[C@H](Oc5ccc(C#N)c(Cl)c5)C4(C)C)cn3)cc2)c2c(sc(C)c2C)-n2c(C)nnc21` [Compound I-80], the GI50 with VCaP cells was < 500 nM; in test [1], < 500 nM; in test [2], 500 to 1500 nM; in the test with T47D cells, 500 to 1500 nM.
As for `CCNC(=O)C[C@@H]1N=C(c2ccc(OC3CC(N(C)C4CCN(c5ncc(C(=O)N[C@H]6C(C)(C)[C@H](Oc7ccc(C#N)c(Cl)c7)C6(C)C)cn5)CC4)C3)cc2)c2c(sc(C)c2C)-n2c(C)nnc21` (stereo partly drawn) [Compound I-82], the GI50 in the test with VCaP cells is 500 to 1500 nM; in test [1], < 500 nM; in test [2] it was 500 to 1500 nM; in the test with T47D cells it was < 500 nM.
For `CCNC(=O)C[C@@H]1N=C(c2ccc(CCCOC3CCN(c4ncc(C(=O)N[C@H]5C(C)(C)[C@H](Oc6ccc(C#N)c(Cl)c6)C5(C)C)cn4)CC3)cc2)c2c(sc(C)c2C)-n2c(C)nnc21` [Compound I-87, N-[3-(3-chloro-4-cyano-phenoxy)-2,2,4,4-tetramethyl-cyclobutyl]-2-[4-[3-[4-[(9S)-9-[2-(ethylamino)-2-oxo-ethyl]-4,5,13-trimethyl-3-thia-1,8,11,12-tetrazatricyclo[8.3.0.02,6]trideca-2(6),4,7,10,12-pentaen-7-yl]phenyl]propoxy]-1-piperidyl]pyrimidine-5-carboxamide], the GI50 (with VCaP cells; in test [1]; in test [2]; in the test on T47D cells) was < 500 nM throughout.
Turning to `CCNC(=O)C[C@@H]1N=C(c2ccc(CCC3CN(c4ncc(C(=O)N[C@H]5C(C)(C)[C@H](Oc6ccc(C#N)c(Cl)c6)C5(C)C)cn4)C3)cc2)c2c(sc(C)c2C)-n2c(C)nnc21` [Compound I-93], the GI50 in the test on VCaP cells is < 500 nM; in test [1] it was < 500 nM; in test [2] it was 500 to 1500 nM; with T47D cells, 500 to 1500 nM.
For `CCNC(=O)C[C@@H]1N=C(c2ccc(CN3CC4CN(c5ncc(C(=O)N[C@H]6C(C)(C)[C@H](Cc7ccc(C#N)c(Cl)c7)C6(C)C)cn5)CC4C3)cc2)c2c(sc(C)c2C)-n2c(C)nnc21` (stereo partly drawn) [Compound I-94], the GI50 in the test on VCaP cells is < 500 nM; in test [1], < 500 nM; in test [2], 500 to 1500 nM; with T47D cells it was 500 to 1500 nM.
As for `CCNC(=O)C[C@@H]1N=C(c2ccc(CCCN3CCN(c4ncc(C(=O)N[C@H]5C(C)(C)[C@H](Oc6ccc(C#N)c(Cl)c6)C5(C)C)cn4)CC3)cc2)c2c(sc(C)c2C)-n2c(C)nnc21` [Compound I-99], the GI50 with VCaP cells was 500 to 1500 nM; in test [1], < 500 nM; in test [2], 500 to 1500 nM; with T47D cells, < 500 nM.
Consider `CCNC(=O)C[C@@H]1N=C(c2ccc(CCN(C)c3ncc(C(=O)N[C@H]4C(C)(C)[C@H](Oc5ccc(C#N)c(Cl)c5)C4(C)C)cn3)cc2)c2c(sc(C)c2C)-n2c(C)nnc21` [Compound I-103], for which the GI50 is 500 to 1500 nM in the test on VCaP cells, < 500 nM in test [1], 500 to 1500 nM in test [2] and 500 to 1500 nM in the test on T47D cells.
In the case of `CCNC(=O)C[C@@H]1N=C(c2ccc(N3CCC(CN4CCN(c5ncc(C(=O)N[C@H]6C(C)(C)[C@H](Oc7ccc(C#N)c(Cl)c7)C6(C)C)cn5)CC4)CC3)cc2)c2c(sc(C)c2C)-n2c(C)nnc21` [Compound I-109], the GI50 with VCaP cells was < 500 nM; in test [1], < 500 nM; in test [2], 500 to 1500 nM; in the test with T47D cells it was < 500 nM.

The GI50 is the concentration that inhibits growth by half. Higher therefore signals less potent growth inhibition.
